Legend:
Assay type in all cases: in vivo
Kochia (Kochia scoparia) [1] = assay: Test A preemergence; settings: Bassia scoparia, pre-emergence, 240 h, 0 to 100 scale where 0 is no effect and 100 is complete control, read-out: Kochia plant response rating
Procedure, shortened: (§1)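 In a loam soil and sand blend, planted seeds got a preemergence directed soil spray, and young plants at the one- to two-leaf stage, 2–10 cm high, got a postemergence application; ~10 d greenhouse hold; injury rated visually, 0 = none, 100 = complete control.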

[2] = tested on: barnyardgrass (Echinochloa crus-galli); assay: Test A preemergence; settings: Echinochloa crus-galli, pre-emergence, 240 h, 0 to 100 scale where 0 is no effect and 100 is complete control, read-out: Barnyardgrass plant response rating
Procedure, shortened: as §1

[3] = tested on: giant foxtail (Setaria faberii); assay: Test A preemergence; settings: Setaria faberi, pre-emergence, 240 h, 0 to 100 scale where 0 is no effect and 100 is complete control, read-out: Foxtail, Giant plant response rating
Procedure, shortened: as §1

[4] = tested on: pigweed (Amaranthus retroflexus); assay: Test A preemergence; settings: Amaranthus retroflexus, pre-emergence, 240 h, 0 to 100 scale where 0 is no effect and 100 is complete control, read-out: Pigweed plant response rating
[5] = tested on: ragweed (common ragweed, Ambrosia elatior); assay: Test A preemergence; settings: Ambrosia artemisiifolia, pre-emergence, 240 h, 0 to 100 scale where 0 is no effect and 100 is complete control, read-out: Ragweed plant response rating
Procedure, shortened: as §1

[6] = tested on: ryegrass, Italian (Italian ryegrass, Lolium multiflorum); assay: Test A preemergence; settings: Lolium multiflorum, pre-emergence, 240 h, 0 to 100 scale where 0 is no effect and 100 is complete control, read-out: Ryegrass, Italian plant response rating
Procedure, shortened: as §1

[7] = tested on: Galium (catchweed bedstraw, Galium aparine); assay: Test A postemergence; settings: Galium, post-emergence, 240 h
Procedure, shortened: as §1

Kochia (Kochia scoparia) [8] = assay: Test A postemergence; settings: Bassia scoparia, post-emergence, 240 h
Procedure, shortened: as §1

[9] = tested on: barnyardgrass (Echinochloa crus-galli); assay: Test A postemergence; settings: Echinochloa crus-galli, post-emergence, 240 h
Procedure, shortened: as §1

[10] = tested on: blackgrass (Alopecurus myosuroides); assay: Test A postemergence; settings: Alopecurus myosuroides, post-emergence, 240 h
Procedure, shortened: as §1

corn (Zea mays) = assay: Test A postemergence; settings: Zea mays, post-emergence, 240 h
Procedure, shortened: as §1

[11] = tested on: giant foxtail (Setaria faberii); assay: Test A postemergence; settings: Setaria faberi, post-emergence, 240 h
Procedure, shortened: as §1

[12] = tested on: pigweed (Amaranthus retroflexus); assay: Test A postemergence; settings: Amaranthus retroflexus, post-emergence, 240 h, 125 g ai/ha, postemergence, visual injury vs untreated controls after approx. 10 d; 0 = no effect, 100 = complete control; read-out: Pigweed plant response rating (0 to 100 scale)
Procedure, shortened: as §1

[13] = tested on: ragweed (common ragweed, Ambrosia elatior); assay: Test A postemergence; settings: Ambrosia artemisiifolia, post-emergence, 240 h, 125 g ai/ha, postemergence, visual injury vs untreated controls after approx. 10 d; 0 = no effect, 100 = complete control; read-out: Ragweed plant response rating (0 to 100 scale)
Procedure, shortened: as §1

[14] = tested on: ryegrass, Italian (Italian ryegrass, Lolium multiflorum); assay: Test A postemergence; settings: Lolium multiflorum, post-emergence, 240 h, 125 g ai/ha, postemergence, visual injury vs untreated controls after approx. 10 d; 0 = no effect, 100 = complete control; read-out: Ryegrass, Italian plant response rating (0 to 100 scale)
Procedure, shortened: as §1

[15] = tested on: wheat (Triticum aestivum); assay: Test A postemergence; settings: Triticum aestivum, post-emergence, 240 h, 125 g ai/ha, postemergence, visual injury vs untreated controls after approx. 10 d; 0 = no effect, 100 = complete control; read-out: Wheat plant response rating (0 to 100 scale)
Procedure, shortened: as §1

[16] = tested on: barnyardgrass (Echinochloa crus-galli); assay: Test B flooded paddy test; settings: Echinochloa crus-galli, 250 g ai/ha, Flood; 0 to 100 scale where 0 is no effect and 100 is complete control; read-out: Barnyardgrass plant response rating
Procedure, shortened: (§2)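 2-leaf plants; pots flooded 3 cm over soil; cpd added to paddy water; depth held; greenhouse 13–15 d; visual rating vs controls, 0 = no effect, 100 = complete control.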

[17] = tested on: ducksalad (Heteranthera limosa); assay: Test B flooded paddy test; settings: Heteranthera limosa, 250 g ai/ha, Flood; 0 to 100 scale where 0 is no effect and 100 is complete control; read-out: Ducksalad plant response rating
Procedure, shortened: as §2

rice (Oryra sativa) = assay: Test B flooded paddy test; settings: Oryza sativa, 250 g ai/ha, Flood; 0 to 100 scale where 0 is no effect and 100 is complete control; read-out: Rice plant response rating
Procedure, shortened: as §2

[18] = tested on: sedge, umbrella (small-flower umbrella sedge, Cyperus difformis); assay: Test B flooded paddy test; settings: Cyperus difformis, 250 g ai/ha, Flood; 0 to 100 scale where 0 is no effect and 100 is complete control; read-out: Sedge, Umbrella plant response rating
Procedure, shortened: as §2

[19] = 125 g ai/ha, preemergence, approx. 10 d

CON1CC[C@H](c2cccc(C(F)(F)F)c2)[C@@H](C(=O)Nc2ccccc2C(F)(F)F)C1=O [Compound 1172]
0%: pest or weed control at 31 g/ha (Kochia (Kochia scoparia) [1]; 31 g ai/ha, Preemergence) | pest or weed control at 125 g/ha (Kochia (Kochia scoparia) [1]; [19]) | pest or weed control at 31 g/ha ([2]; 31 g ai/ha, Preemergence) | pest or weed control at 125 g/ha [2, 19] | pest or weed control at 31 g/ha ([3]; 31 g ai/ha, Preemergence) | pest or weed control at 125 g/ha [3, 19] | pest or weed control at 31 g/ha ([4]; 31 g ai/ha, Preemergence) | pest or weed control at 125 g/ha [4, 19] | pest or weed control at 31 g/ha ([5]; 31 g ai/ha, Preemergence) | pest or weed control at 125 g/ha [5, 19] | pest or weed control at 31 g/ha ([6]; 31 g ai/ha, Preemergence) | pest or weed control at 125 g/ha [6, 19] | pest or weed control at 125 g/ha ([7]; 125 g ai/ha, postemergence, visual injury vs untreated controls after approx. 10 d, 0 = no effect, 100 = complete control, read-out: Galium plant response rating (0 to 100 scale)) | pest or weed control at 31 g/ha ([7]; Postemergence, 31 g ai/ha, visual injury after approx. 10 d, 0 to 100 scale, 0 no effect, 100 complete control, read-out: Plant response rating, Galium) | pest or weed control at 125 g/ha (Kochia (Kochia scoparia) [8]; 125 g ai/ha, postemergence, visual injury vs untreated controls after approx. 10 d, 0 = no effect, 100 = complete control, read-out: Kochia plant response rating (0 to 100 scale)) | pest or weed control at 31 g/ha (Kochia (Kochia scoparia) [8]; Postemergence, 31 g ai/ha, visual injury after approx. 10 d, 0 to 100 scale, 0 no effect, 100 complete control, read-out: Plant response rating, Kochia) | pest or weed control at 125 g/ha ([9]; 125 g ai/ha, postemergence, visual injury vs untreated controls after approx. 10 d, 0 = no effect, 100 = complete control, read-out: Barnyardgrass plant response rating (0 to 100 scale)) | pest or weed control at 31 g/ha ([9]; Postemergence, 31 g ai/ha, visual injury after approx. 10 d, 0 to 100 scale, 0 no effect, 100 complete control, read-out: Plant response rating, Barnyardgrass) | pest or weed control at 125 g/ha ([10]; 125 g ai/ha, postemergence, visual injury vs untreated controls after approx. 10 d, 0 = no effect, 100 = complete control, read-out: Blackgrass plant response rating (0 to 100 scale)) | pest or weed control at 31 g/ha ([10]; Postemergence, 31 g ai/ha, visual injury after approx. 10 d, 0 to 100 scale, 0 no effect, 100 complete control, read-out: Plant response rating, Blackgrass) | plant injury at 125 g/ha (corn (Zea mays); 125 g ai/ha, postemergence, visual injury vs untreated controls after approx. 10 d, 0 = no effect, 100 = complete control, read-out: Corn plant response rating (0 to 100 scale)) | Corn plant response rating (crop injury, 0 = no effect, 100 = complete kill) at 31 g/ha (corn (Zea mays); Postemergence, 31 g ai/ha, visual injury after approx. 10 d, 0 to 100 scale, 0 no effect, 100 complete control) | pest or weed control at 125 g/ha ([11]; 125 g ai/ha, postemergence, visual injury vs untreated controls after approx. 10 d, 0 = no effect, 100 = complete control, read-out: Foxtail, Giant plant response rating (0 to 100 scale)) | pest or weed control at 31 g/ha ([11]; Postemergence, 31 g ai/ha, visual injury after approx. 10 d, 0 to 100 scale, 0 no effect, 100 complete control, read-out: Plant response rating, Foxtail, Giant) | pest or weed control at 125 g/ha [12] | pest or weed control at 125 g/ha [13] | pest or weed control at 125 g/ha [14] | plant injury at 125 g/ha [15] | pest or weed control at 250 g/ha [16] | pest or weed control at 250 g/ha [17] | pest or weed control at 250 g/ha (rice (Oryra sativa)) | pest or weed control at 250 g/ha [18]

From patent US12077503B2, “Substituted cyclic amides and their use as herbicides” (FMC CORPORATION, priority 2015, dated 2024)
